Measured values: article PMC7408547, “Bivalent Inhibitor with Selectivity for Trimeric MMP-9 Amplifies Neutrophil Chemotaxis and Enables Functional Studies on MMP-9 Proteoforms” (Cells, 2020)

Tested on: secretions of fMLF stimulated human granulocytes
Assay: Gelatinolysis in secretions of fMLF stimulated human granulocytes
Type: biochemical
Conditions: neutrophil elastase inhibitor 20 µM; depending on the donor (n = 4)
Description: To determine the inhibition of gelatinolytic activity, we used a previously optimized gelatin degradation assay. Activated MMP-9, activated MMP-2, neutrophil elastase or supernatants of stimulated neutrophils, were incubated with different concentrations of inhibitors and incubated for 30 min at 37 °C. Next, dye-quenched gelatin (DQ™-gelatin, Invitrogen, Carlsbad, CA, USA) was added at a final concentration of 2.5 µg/mL and the increase in fluorescence over time was measured with the CLARIOstar microplate reader (BMG Labtech, Ortenberg, Germany). For other MMPs, the OmniMMP substrate peptide (Mca-PLGL-Dpa-AR-NH2, cat. no. BML-P126-0001, Enzo Life Sciences, Farmingdale, NY, USA) was used at a final concentration of 2.5 µg/mL. For ADAM17 the fluorogenic peptide Mca-PLAQAV-Dpa-RSSSR-NH2 (ES003, R & D systems, Minneapolis, MO, USA) and for neutrophil elastase the fluorogenic substrate MeOSuc-AAPV-AMC (cat. no. 324740, Merck Millipore, Darmstadt, Germany) were used. Proteolytic activity was determined by linear regression of the fluorescence curve and the percentage inhibition was calculated through comparison with the positive control (no inhibitors). When testing supernatants from human neutrophils, the assay was performed in the presence of 20 µM neutrophil elastase inhibitor (Elastase Inhibitor IV, Calbiochem, Darmstadt, Germany).
Neutrophils were isolated from fresh blood from healthy donors, via density gradient centrifugation as described. To obtain neutrophil degranulate, neutrophils were suspended in degranulation buffer (120 mM NaCl, 15 mM CaCl2, 20 mM Tris/HCl pH 7.5) at a concentration of 10^7 cells/mL and degranulation was induced by incubating neutrophils with N-formyl-methionyl-leucyl-phenylalanine (fMLF) (final concentration 0.5 µM) for 20 min at 37 °C as previously described. Next, the supernatant was collected by centrifugation. For fresh blood donations, all subjects gave written informed consent in accordance with the Declaration of Helsinki.

Cc1cccc(C(=O)n2nc(C#N)c3ccccc32)c1 [neutrophil elastase inhibitor, reference compound]
percentage of gelatinolytic activity inhibited: 84–97%
